Drawing on ChEMBL document CHEMBL5537115, “New broad-spectrum and potent antibacterial agents with dual-targeting mechanism: Promoting FtsZ polymerization and disrupting bacterial membranes” (Eur J Med Chem, 2024), this text covers MIC for five compounds.

For orientation: MIC means the least concentration at which growth counts as inhibited.

Holding throughout (assay type): functional
For experiment [1], the system named is Streptococcus pyogenes. In words: Antibacterial activity against erythromycin-resistant Streptococcus pyogenes 2 clinical isolate assessed as bacterial growth inhibition incubated for 20 hrs by CLSI based broth microdilution method. On the technique in general: Broth dilution looks for growth in wells or tubes with falling amounts of substance.
Experiment [2] concerns Staphylococcus epidermidis. The experiment can be described thus: Antibacterial activity against penicillin-resistant Staphylococcus epidermidis clinical isolate assessed as bacterial growth inhibition incubated for 20 hrs by CLSI based broth microdilution method.
Experiment [3] concerns Staphylococcus aureus. The experiment can be described thus: Antibacterial activity against Staphylococcus aureus clinical isolate assessed as bacterial growth inhibition incubated for 20 hrs by CLSI based broth microdilution method.
Experiment [4] has as its system Staphylococcus aureus. The experiment can be described thus: Antibacterial activity against penicillin-resistant Staphylococcus aureus ATCC31007 assessed as bacterial growth inhibition incubated for 20 hrs by CLSI based broth microdilution method.
The subject of experiment [5] is Staphylococcus aureus. The experiment can be described thus: Antibacterial activity against methicillin-resistant Staphylococcus aureus ATCC43300 assessed as bacterial growth inhibition incubated for 20 hrs by CLSI based broth microdilution method.
The test system of a further experiment is Klebsiella pneumoniae. The experiment can be described thus: Antibacterial activity against Klebsiella pneumoniae ATCC BAA-1902 assessed as bacterial growth inhibition incubated for 20 hrs by CLSI based broth microdilution method.
For a further experiment, the system named is Acinetobacter baumannii. The experiment can be described thus: Antibacterial activity against Acinetobacter baumannii ATCC19606 assessed as bacterial growth inhibition incubated for 20 hrs by CLSI based broth microdilution method.
Experiment [6] deals with Escherichia coli. In words: Antibacterial activity against wild-type Escherichia coli BW25113 assessed as bacterial growth inhibition incubated for 20 hrs by CLSI based broth microdilution method.
Experiment [7] has as its system Escherichia coli. The experiment can be described thus: Antibacterial activity against penicillin-susceptible Escherichia coli ATCC25922 assessed as bacterial growth inhibition incubated for 20 hrs by CLSI based broth microdilution method.
Experiment [8] deals with Enterococcus faecium. In words: Antibacterial activity against vancomycin-susceptible Enterococcus faecium ATCC19434 assessed as bacterial growth inhibition incubated for 20 hrs by CLSI based broth microdilution method.
For experiment [9], the system named is Enterococcus faecalis. In words: Antibacterial activity against vancomycin-susceptible Enterococcus faecalis ATCC29212 assessed as bacterial growth inhibition incubated for 20 hrs by CLSI based broth microdilution method.
Experiment [10] concerns Streptococcus pyogenes. In words: Antibacterial activity against erythromycin-susceptible Streptococcus pyogenes 1 assessed as bacterial growth inhibition incubated for 20 hrs by CLSI based broth microdilution method.
For experiment [11], the system named is Staphylococcus aureus. In words: Antibacterial activity against erythromycin-susceptible Staphylococcus aureus ATCC25923 assessed as bacterial growth inhibition incubated for 20 hrs by CLSI based broth microdilution method.
A further experiment deals with Bacillus pumilus. In words: Antibacterial activity against penicillin-susceptible Bacillus pumilus CMCC63202 assessed as bacterial growth inhibition incubated for 20 hrs by CLSI based broth microdilution method.
In the next experiment the test system is Bacillus subtilis. In words: Antibacterial activity against penicillin-susceptible Bacillus subtilis ATCC9372 assessed as bacterial growth inhibition incubated for 20 hrs by CLSI based broth microdilution method.
For experiment [12], the system named is Enterococcus faecalis. In words: Antibacterial activity against vancomycin-resistant Enterococcus faecalis ATCC51299 assessed as bacterial growth inhibition incubated for 20 hrs by CLSI based broth microdilution method.
For experiment [13], the system named is Enterococcus faecium. In words: Antibacterial activity against vancomycin-resistant Enterococcus faecium ATCC51559 assessed as bacterial growth inhibition incubated for 20 hrs by CLSI based broth microdilution method.

On to `COc1ccc2cc3[n+](cc2c1OC)CCc1cc2c(cc1-3)OCO2` [BERBERINE], for which the MIC was over 64 µg/mL in the experiment on Streptococcus pyogenes [1]; over 64 µg/mL in experiment [2]; 64 µg/mL in the experiment on Staphylococcus aureus [3]; over 64 µg/mL in the experiment with Staphylococcus aureus [4]; over 64 µg/mL in the experiment with Staphylococcus aureus [5]; over 64 µg/mL in the experiment on Klebsiella pneumoniae. Besides, the minimum inhibitory concentration (MIC) in the experiment with Acinetobacter baumannii, with Escherichia coli [6], with Escherichia coli [7], in the experiment with Enterococcus faecium [8], in the experiment with Enterococcus faecalis [9] and with Streptococcus pyogenes [10] was over 64 µg/mL throughout. In addition, the minimal inhibitory concentration (MIC) in the experiment with Staphylococcus aureus [11] is 64 µg/mL; in the experiment with Bacillus pumilus it was over 64 µg/mL; in the experiment on Bacillus subtilis, over 64 µg/mL; in the experiment on Enterococcus faecalis [12], over 64 µg/mL; in the experiment on Enterococcus faecium [13], over 64 µg/mL.

Consider `CC(C)c1ccc(/C=C/c2cc(-c3ccc4ccccc4c3)[n+](C)cc2-c2ccccc2)cc1.[I-]`, for which the minimal inhibitory concentration (MIC) in the experiment with Streptococcus pyogenes [1] turned out to be 4 µg/mL; in [2] it was 2 µg/mL; with Staphylococcus aureus [3] it was 0.5 µg/mL; with Staphylococcus aureus [4], 2 µg/mL; with Staphylococcus aureus [5], 0.5 µg/mL; in the experiment on Klebsiella pneumoniae it was 16 µg/mL. For the same compound, the MIC was 2 µg/mL in the experiment with Acinetobacter baumannii; 8 µg/mL with Escherichia coli [6]; 64 µg/mL in the experiment on Escherichia coli [7]; 2 µg/mL in the experiment with Enterococcus faecium [8]; 2 µg/mL with Enterococcus faecalis [9]; 0.5 µg/mL in the experiment on Streptococcus pyogenes [10]. The MIC in the experiment with Staphylococcus aureus [11] worked out at 0.5 µg/mL; in the experiment with Bacillus pumilus, 0.5 µg/mL; with Bacillus subtilis, 0.5 µg/mL; with Enterococcus faecalis [12], 4 µg/mL; in the experiment on Enterococcus faecium [13] it was 2 µg/mL.

On to `CCc1ccc(/C=C/c2cc(-c3ccccc3)c[n+](C)c2-c2ccccc2)cc1.[I-]`, for which the MIC in the experiment on Streptococcus pyogenes [1] is 8 µg/mL; in [2] it was 16 µg/mL; in the experiment with Staphylococcus aureus [3], 2 µg/mL; with Staphylococcus aureus [4], 4 µg/mL; in the experiment with Staphylococcus aureus [5], 8 µg/mL; in the experiment on Klebsiella pneumoniae, 16 µg/mL. The minimum inhibitory concentration (MIC) is 32 µg/mL in the experiment with Acinetobacter baumannii; over 64 µg/mL in the experiment on Escherichia coli [6]; over 64 µg/mL in the experiment with Escherichia coli [7]; 16 µg/mL in the experiment with Enterococcus faecium [8]; 16 µg/mL with Enterococcus faecalis [9]; 4 µg/mL in the experiment on Streptococcus pyogenes [10]. The minimal inhibitory concentration (MIC) in the experiment on Staphylococcus aureus [11] stood at 1 µg/mL; in the experiment on Bacillus pumilus it was 8 µg/mL; with Bacillus subtilis, 4 µg/mL; in the experiment on Enterococcus faecalis [12] it was 16 µg/mL; with Enterococcus faecium [13] it was 16 µg/mL.

`C[n+]1cc(-c2ccccc2)cc(/C=C/c2ccc(C#N)cc2)c1-c1ccccc1.[I-]`: the MIC was 32 µg/mL with Streptococcus pyogenes [1]; over 64 µg/mL in [2]; 32 µg/mL with Staphylococcus aureus [3]; over 64 µg/mL in the experiment on Staphylococcus aureus [4]; 64 µg/mL in the experiment with Staphylococcus aureus [5]; over 64 µg/mL in the experiment with Klebsiella pneumoniae. The MIC in the experiment with Acinetobacter baumannii is 64 µg/mL; in the experiment with Escherichia coli [6] it was over 64 µg/mL; in the experiment on Escherichia coli [7] it was over 64 µg/mL; with Enterococcus faecium [8], over 64 µg/mL; in the experiment on Enterococcus faecalis [9] it was over 64 µg/mL; with Streptococcus pyogenes [10] it was 32 µg/mL. For the same compound, the MIC was 8 µg/mL in the experiment on Staphylococcus aureus [11]; over 64 µg/mL in the experiment with Bacillus pumilus; 32 µg/mL in the experiment with Bacillus subtilis; over 64 µg/mL in the experiment with Enterococcus faecalis [12]; over 64 µg/mL in the experiment with Enterococcus faecium [13].

For `CCCCCCCOc1ccc(/C=C/c2cc(-c3ccccc3)c[n+](C)c2-c2ccccc2)cc1.[I-]`, the MIC in the experiment with Streptococcus pyogenes [1] turned out to be 8 µg/mL; in [2], 64 µg/mL; with Staphylococcus aureus [3] it was 8 µg/mL; in the experiment with Staphylococcus aureus [4], 64 µg/mL; in the experiment on Staphylococcus aureus [5] it was 8 µg/mL; in the experiment with Klebsiella pneumoniae, 8 µg/mL. The MIC was 2 µg/mL with Acinetobacter baumannii; 8 µg/mL with Escherichia coli [6]; 8 µg/mL with Escherichia coli [7]; 2 µg/mL in the experiment with Enterococcus faecium [8]; 4 µg/mL in the experiment with Enterococcus faecalis [9]; 4 µg/mL in the experiment with Streptococcus pyogenes [10]. The MIC in the experiment with Staphylococcus aureus [11] was 0.25 µg/mL; with Bacillus pumilus, 1 µg/mL; in the experiment with Bacillus subtilis it was 1 µg/mL; in the experiment on Enterococcus faecalis [12], over 64 µg/mL; in the experiment on Enterococcus faecium [13], 64 µg/mL.
